# From patent USRE39352E1, “Creatine amidinohydrolase, production thereof and use thereof” (Toyo Boseki Kabushiki Kaisha, priority 1996, dated 2006)
# Several values for one entry are separate records, joined by “and”; a condition that tells them apart may be missing. Identical values can stand only once.
# How the values were obtained:
# [1] = tested on: Alcaligenes faecalis TE3581 creatine amidinohydrolase mutant pCRH273M1 (FERM BP-5374), purified from Escherichia coli JM109 (pCRH273M1); experiment: Km value for creatine, coupling assay using sarcosine oxidase and peroxidase (mutant pCRH273M1); format: biochemical; conditions: coupling assay with sarcosine oxidase and peroxidase, pH 7.6, 37° C.
# [2] = tested on: creatine amidinohydrolase derived from bacteria belonging to the genus Micrococcus; conditions: Japanese Patent Examined Publication No. 76915/1991; cited from earlier work
# [3] = tested on: Alcaligenes faecalis TE3581 (FERM P-14237) creatine amidinohydrolase, wild, SEQ ID NO: 1 (gene SEQ ID NO: 2); experiment: Km value for creatine, coupling assay using sarcosine oxidase and peroxidase (wild enzyme); format: biochemical; conditions: coupling assay with sarcosine oxidase and peroxidase, pH 7.6, 37° C.
# Excerpt: While the gene encoding a wild creatine amidinohydrolase which is to be mutated is not particularly limited, in one embodiment of the present invention, it is the creatine amidinohydrolase gene depicted in the Sequence Listing•SEQ ID:No.2, which is derived from Alcaligenes•faecalis TE3581 (FERM P-14237).
# In another embodiment of the present invention, a novel creatine amidinohydrolase having a smaller Km value for creatine than a wild creatine amidinohydrolase is produced by mutating the gene encoding the amino acid sequence depicted in the Sequence Listing•SEQ ID No:1. […]
# In the Examples, the activity of creatine amidinohydrolase was determined as follows. […]
# The above-mentioned reaction mixture (3 ml) is taken with a cuvette (d=1 cm) and preliminarily heated to 37° C. for about 3 minutes. […] Using water as a control, changes in absorbance at 500 nm are recorded for 5 minutes using a spectrophotometer controlled to 37° C. Based on the linear portion of 2-5 minutes thereof, changes in absorbance per minute are determined (ΔOD) test.
# The blank test is performed in the same manner as above except that a solution (0.1 ml, 50 mM potassium phosphate buffer, pH 7.5) for diluting the enzyme is used instead of the enzyme solution and changes in absorbance per minute are determined (ΔOD blank).
# The enzyme amount is calculated by inserting each measure into the following formula. […]
# [4] = tested on: creatine amidinohydrolase produced by bacteria belonging to the genus Alcaligenes (Japanese Patent Unexamined Publication No. 63363/1994); conditions: cited from earlier work
# [5] = tested on: Alcaligenes faecalis TE3581 creatine amidinohydrolase mutant pCRH273M2 (FERM BP-5375), purified from Escherichia coli JM109 (pCRH273M2); experiment: Km value for creatine, coupling assay using sarcosine oxidase and peroxidase (mutant pCRH273M2); format: biochemical; conditions: coupling assay with sarcosine oxidase and peroxidase, pH 7.6, 37° C.
# [6] = tested on: Alcaligenes faecalis TE3581 creatine amidinohydrolase mutant pCRH273M3 (FERM BP-5376), purified from Escherichia coli JM109 (pCRH273M3); experiment: Km value for creatine, coupling assay using sarcosine oxidase and peroxidase (mutant pCRH273M3); format: biochemical; conditions: coupling assay with sarcosine oxidase and peroxidase, pH 7.6, 37° C.
# [7] = tested on: creatine amidinohydrolase derived from bacteria belonging to the genus Corynebacterium; conditions: Japanese Patent Examined Publication No. 76915/1991; cited from earlier work
# [8] = tested on: creatine amidinohydrolase derived from bacteria belonging to the genus Actinobacillus; conditions: Japanese Patent Examined Publication No. 76915/1991; cited from earlier work
# [9] = tested on: creatine amidinohydrolase derived from bacteria belonging to the genus Bacillus; conditions: Japanese Patent Examined Publication No. 76915/1991; cited from earlier work
# [10] = tested on: Pseudomonas putida creatine amidinohydrolase; conditions: residual creatine determined with α-naphthol and diacetyl; Archives Biochemistry and Biophysics 177, 508-515 (1976); read-out: apparent Km value for creatine; cited from earlier work
smiles,measurement,setting,value
CN(CC(=O)O)C(=N)N [creatine],Km,[1],~6.5 mM and 6.5 mM
same,Km,[2],~20 mM
same,Km,[3],15.2 mM
same,Km,[4],~15.2 mM
same,Km,[5],~4.5 mM and 4.5 mM
same,Km,[6],~9 mM and 9 mM
same,Km,[7],~20 mM
same,Km,[8],~20 mM
same,Km,[9],~20 mM
same,Km,[10],1.33 mM
